From PubChem BioAssay (NCI)
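48-hour exposure; five concentrations; linearly interpolated endpoints. Here, GI50 denotes the concentration required for 50% inhibition of growth. At the TGI there is no net growth.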

Key:
Experiment in all cases: NCI tumour cell line growth inhibition, 48 h
SF-539 CNS = system: SF-539 CNS
IGROV1 ovarian = system: IGROV1 ovarian
HCT-116 colon = system: HCT-116 colon
HS 578T breast = system: HS 578T breast
SNB-19 CNS = system: SNB-19 CNS
MALME-3M melanoma = system: MALME-3M melanoma
MCF7 breast = system: MCF7 breast
CCRF-CEM leukemia = system: CCRF-CEM leukemia
UO-31 renal = system: UO-31 renal
MDA-MB-231 breast = system: MDA-MB-231 breast

Row | Compound | TGI (SF-539 CNS) | TGI (IGROV1 ovarian) | TGI (HCT-116 colon) | TGI (HS 578T breast) | TGI (SNB-19 CNS) | TGI (MALME-3M melanoma) | TGI (MCF7 breast) | TGI (CCRF-CEM leukemia) | TGI (UO-31 renal) | TGI (MDA-MB-231 breast) | GI50 (SF-539 CNS) | GI50 (IGROV1 ovarian) | GI50 (HCT-116 colon) | GI50 (HS 578T breast) | GI50 (SNB-19 CNS) | GI50 (MALME-3M melanoma) | GI50 (MCF7 breast) | GI50 (CCRF-CEM leukemia) | GI50 (UO-31 renal) | GI50 (MDA-MB-231 breast)
1 | CCOC(=O)C(O)Cc1cnc2ccccc2n1 (stereo not drawn) | > 100 µM | > 100 µM | > 100 µM | > 100 µM | > 100 µM | > 100 µM | > 100 µM | > 100 µM | > 100 µM | > 100 µM |  |  |  |  |  |  |  |  |  | 
2 | N=C1N=C(N)S/C1=C\c1ccc2ncccc2c1 | > 25 µM | > 25 µM | > 25 µM | > 25 µM | > 25 µM | > 25 µM | > 25 µM | > 25 µM | > 25 µM | > 25 µM | > 25 µM | > 25 µM | > 25 µM | > 19.1 µM | > 25 µM | > 25 µM | > 25 µM | > 25 µM | > 25 µM | > 25 µM
3 | Cc1ccc(S(=O)(=O)NNC(C[N+](=O)[O-])c2ccccc2)cc1 (stereo not drawn) | 81.5 µM | 26.7 µM | > 100 µM | > 100 µM | 30.4 µM | 71.3 µM | 21.6 µM | > 100 µM | 48.6 µM | 81.3 µM |  |  |  |  |  |  |  |  |  | 
4 | CC(C)c1ccc(/C=N/N=C(N)N)cc1 | 25.3 µM | 25.8 µM | 11.8 µM | 36.5 µM | 17.4 µM | 21.1 µM | 10.1 µM | 47.5 µM | 22.3 µM | 21.5 µM | 11.6 µM | 11 µM | 3.34 µM | 11.5 µM | 4.77 µM | 5.56 µM | 2.76 µM | 4.33 µM | 10.3 µM | 7.39 µM
5 | C[n+]1cc2cc3c(cc2c2ccccc21)OCO3 | 23.8 µM | 58 µM | > 100 µM | 7.71 µM |  | 5.16 µM | 17.3 µM | > 100 µM | > 100 µM | 54 µM | 4.83 µM | 0.982 µM | 3.58 µM | 2 µM | 1.64 µM | 1.86 µM | 2.61 µM | 8.71 µM | 27.8 µM | 10.8 µM
6 | CC(=O)OC1CC2(O)C(CCC3(C)C(c4ccc(=O)oc4)CCC32O)C2(C)CCC(OC3OC(CO)C(O)C(O)C3O)C=C12 (stereo not drawn) | 0.0331 µM | 0.272 µM | 0.105 µM | 0.701 µM | 0.165 µM | 0.0593 µM | 0.167 µM | 0.115 µM | 0.0466 µM | 0.396 µM | 0.0144 µM | 0.0318 µM | 0.0111 µM | 0.0103 µM | 0.0461 µM | 0.0245 µM | 0.0183 µM | < 0.01 µM | 0.0182 µM | 0.0684 µM
7 | NC(=S)N/N=C/c1ccc(OC(=O)COc2ccccc2)cn1 | 10.9 µM | > 100 µM | > 100 µM | > 100 µM | > 100 µM | > 100 µM | > 100 µM | > 100 µM | 39.2 µM | > 100 µM | 2.94 µM | 9.39 µM | 5.98 µM | 68.4 µM | 28.5 µM | 11.2 µM | 2.76 µM | 1.58 µM | 3.91 µM | 8.27 µM
8 | O=C(Nc1cc(C(F)(F)F)cc(C(F)(F)F)c1)Nc1ccc(OCc2nnc(-c3ccc(Cl)cc3)o2)c(F)c1 | 8.47 µM | 39.2 µM | 3.02 µM | 12.1 µM | 25.1 µM | 6.27 µM | 8.47 µM | 11.3 µM | 8.75 µM | 4.93 µM | 2.83 µM | 3.75 µM | 0.802 µM | 2.38 µM | 3.1 µM | 2.3 µM | 1.79 µM | 1.88 µM | 1.86 µM | 1.99 µM
9 | O=C(Nc1nc(-c2ccccc2)cs1)c1cc(O)c(O)c(O)c1 | 11.9 µM | 22.8 µM | 16.5 µM | 83.8 µM | > 100 µM | 71.1 µM | > 100 µM | 10.5 µM | 19.4 µM | 24.4 µM | 2.77 µM | 3.12 µM | 2.97 µM | 3.37 µM | 2.61 µM | 8.86 µM | 4.73 µM | 0.687 µM | 0.605 µM | 1.58 µM
10 | CSC(=NC#N)S/C=C/C(=O)c1cccc2ccccc12 | 68.2 µM | 48.1 µM | > 100 µM | > 100 µM | > 100 µM | 38.6 µM | > 100 µM | > 100 µM | 73.5 µM | 75.4 µM | 17.6 µM | 21 µM | 40 µM | 40.4 µM | 43 µM | 15.8 µM | 30.9 µM | 27.1 µM | 26 µM | 26.2 µM
11 | N#CSCC1CC(O)(c2ccccc2)CC(c2ccc(Cl)cc2)O1 (stereo not drawn) | 3.32 µM | 7.72 µM | 3.1 µM | 13.2 µM | 19.7 µM | 7.35 µM | 4.92 µM | 11.2 µM | 4.84 µM | 11.2 µM | 1.54 µM | 2.75 µM | 1.62 µM | 3.24 µM | 6.9 µM | 2.65 µM | 1.84 µM | 2.55 µM | 1.61 µM | 2.8 µM
12 | C=C1[C@@H](O)C[C@H]2C(C)(C)C[C@H](Cl)C[C@]2(C)[C@H]1C[C@H](O)[C@H]1CC(=O)NC1=O | 0.0597 µM | 0.0853 µM | 0.109 µM | 0.274 µM | 0.241 µM | 0.0632 µM | 0.106 µM |  | 0.212 µM | 0.19 µM | < 0.0109 µM | 0.0114 µM | < 0.01 µM | 0.0192 µM | < 0.01 µM | < 0.01 µM | < 0.01 µM | < 0.01 µM | 0.0185 µM | 0.015 µM
13 | O=C(NCCNC(=O)c1ccc(F)cc1)Nc1ccc(-n2cc(-c3ccncc3)c(-c3ccc(Cl)c(O)c3)n2)cc1 | 0.957 µM | > 100 µM | 1.56 µM | > 100 µM | > 100 µM | 2.43 µM | > 100 µM | > 100 µM | > 100 µM | 2.26 µM | 0.253 µM | 0.659 µM | 0.338 µM | 0.462 µM | 0.73 µM | 0.714 µM | 0.323 µM | 0.336 µM | 2.4 µM | 0.438 µM
14 | COc1ccc2c(c1)C(=O)c1c-2n(CCCN=[N+]=[N-])c(=O)c2cc(N)ccc12 | > 100 µM | > 100 µM | > 100 µM | > 100 µM | > 100 µM | > 100 µM | > 100 µM | > 100 µM | > 100 µM | > 100 µM | > 100 µM | > 100 µM | > 100 µM | > 100 µM | > 100 µM | > 100 µM | > 100 µM | > 100 µM | > 100 µM | > 100 µM
15 | Cc1ccc(NC(=O)N2CCCCC2)cc1[N+](=O)[O-] | > 100 µM | > 100 µM | > 100 µM | > 100 µM | > 100 µM | > 100 µM | > 100 µM | > 100 µM | > 100 µM | > 100 µM | > 100 µM | > 100 µM | > 100 µM | > 100 µM | > 100 µM | > 100 µM | > 100 µM | > 100 µM | > 100 µM | > 100 µM
16 | Cn1ccc2c3c(=O)cc[nH]c3ccc21 | > 100 µM | > 100 µM | > 100 µM | > 100 µM | > 100 µM | > 100 µM | > 100 µM | > 100 µM | > 100 µM | > 100 µM | > 100 µM | > 100 µM | > 100 µM | 20.2 µM | > 100 µM | > 100 µM | > 100 µM | > 100 µM | > 100 µM | > 100 µM
17 | CC(=O)N1N=C(c2ccc(Nc3nc(Nc4ccc(F)cc4)nc(Nc4ccc(Cl)cc4)n3)cc2)CC1c1ccc(N(C)C)cc1 (stereo not drawn) | > 63.9 µM | 15.8 µM | 10.1 µM | 97.9 µM | > 56.2 µM | 23.8 µM | 26.9 µM | > 100 µM | 16.6 µM | 21 µM | 15.8 µM | 2.96 µM | 2.42 µM | 8.09 µM | 6.26 µM | 4.78 µM | 3.94 µM | 5.23 µM | 3.11 µM | 5.66 µM
18 | Cc1[nH]c(=O)nc(N/N=C/c2ccc(Cl)cc2)c1C(=O)Nc1ccc(Cl)cc1 | 67.6 µM | > 100 µM | 17.1 µM | > 100 µM | > 15.8 µM | 55.2 µM | > 100 µM | > 100 µM | > 100 µM | 26.2 µM |  |  |  |  |  |  |  |  |  | 
